# Results from US20140038989A1, “TETRAHYDROPYRAZOLO [1,5-A] PYRIMIDINE AS ANTI-TUBERCULOSIS COMPOUNDS” (Glaxo Group Limited, priority 2011, published 2014).
# Tested on: Mycobacterium tuberculosis H37Rv
# Assay: Mycobacterium tuberculosis H37Rv Inhibition Assay (Whole Cell Assay)
# Format: cell-based
# Details: ATCC 25618 / H37Rv, H37Rv strain (ATCC25618), Middlebrook 7H9, six days at 37° C., resazurin fluorescence after 48 hours
row,Compound,MIC
1,"CCc1ccc([C@H]2C[C@@H](C(F)(F)F)n3ncc(C(=O)NCc4ccc(Cl)cc4)c3N2)cc1 (relative stereo) [Example 67, Cis-N-(4-chlorobenzyl)-5-(4-ethylphenyl)-7-(trifluoromethyl)-4,5,6,7-tetrahydropyrazolo[1,5-a]pyrimidine-3-carboxamide]",≤ 1 µM
2,"CCc1ccc([C@H]2C[C@@H](C(F)(F)F)n3ncc(C(=O)NCc4ccc(C)n4C)c3N2)cc1 (relative stereo) [Example 72, Cis-N-((1,5-dimethyl-1H-pyrrol-2-yl)methyl)-5-(4-ethylphenyl)-7-(trifluoromethyl)-4,5,6,7-tetrahydropyrazolo[1,5-a]pyrimidine-3-carboxamide]",≤ 1 µM
3,"CCc1ccc([C@H]2C[C@@H](C(F)(F)F)n3ncc(C(=O)NCc4ccc(F)c(C)n4)c3N2)cc1 (relative stereo) [Example 77, Cis-5-(4-ethylphenyl)-N-((5-fluoro-6-methylpyridin-2-yl)methyl)-7-(trifluoromethyl)-4,5,6,7-tetrahydropyrazolo[1,5-a]pyrimidine-3-carboxamide]",1 to 2 µM
4,"Cc1ccc([C@H]2C[C@@H](C(F)(F)F)n3ncc(C(=O)NCc4ccc(F)c(F)c4)c3N2)cc1 (relative stereo) [Example 31, Cis-N-(3,4-difluorobenzyl)-5-(p-tolyl)-7-(trifluoromethyl)-4,5,6,7-tetrahydropyrazolo[1,5-a]pyrimidine-3-carboxamide]",≤ 1 µM
5,"CCc1ccc([C@H]2C[C@@H](C(F)(F)F)n3ncc(C(=O)NCc4cccc(OC)c4)c3N2)cc1 (relative stereo) [Example 8, Cis-5-(4-ethylphenyl)-N-{[3-(methyloxy)phenyl]methyl}-7-(trifluoromethyl)-4,5,6,7-tetrahydropyrazolo[1,5-a]pyrimidine-3-carboxamide]",≤ 1 µM
6,"CCc1ccc([C@H]2C[C@@H](C(F)(F)F)n3ncc(C(=O)NCc4ccc(C)cn4)c3N2)cc1 (relative stereo) [Example 20, Cis-5-(4-ethylphenyl)-N-((5-methylpyridin-2-yl)methyl)-7-(trifluoromethyl)-4,5,6,7-tetrahydropyrazolo[1,5-a]pyrimidine-3-carboxamide]",1 to 2 µM
7,"CCc1ccc([C@H]2C[C@@H](C(F)(F)F)n3ncc(C(=O)NCc4ccccc4Cl)c3N2)cc1 (relative stereo) [Example 73, Cis-N-(2-chlorobenzyl)-5-(4-ethylphenyl)-7-(trifluoromethyl)-4,5,6,7-tetrahydropyrazolo[1,5-a]pyrimidine-3-carboxamide]",1 to 2 µM
8,"Cc1ccc(C2CC(C(F)(F)F)n3ncc(C(=O)NCc4ccc5c(c4)OCO5)c3N2)cc1 (centres unmarked) [Example 38, N-(benzo[d][1,3]dioxol-5-ylmethyl)-5-(p-tolyl)-7-(trifluoromethyl)-4,5,6,7-tetrahydropyrazolo[1,5-a]pyrimidine-3-carboxamide]",≤ 1 µM
9,"COc1ccc(CNC(=O)c2cnn3c2N[C@@H](c2ccc(Br)cc2)C[C@H]3C(F)(F)F)cc1 (relative stereo) [Example 42, Cis-5-(4-bromophenyl)-N-(4-methoxybenzyl)-7-(trifluoromethyl)-4,5,6,7-tetrahydropyrazolo[1,5-a]pyrimidine-3-carboxamide]",> 2 µM
10,"CCc1ccc([C@H]2C[C@@H](C(F)(F)F)n3ncc(C(=O)NCc4ccoc4)c3N2)cc1 (relative stereo) [Example 12, Cis-5-(4-ethylphenyl)-N-(furan-3-ylmethyl)-7-(trifluoromethyl)-4,5,6,7-tetrahydropyrazolo[1,5-a]pyrimidine-3-carboxamide]",≤ 1 µM
11,"CCc1ccc([C@H]2C[C@@H](C(C)(F)F)n3ncc(C(=O)NCc4ccc(C)cc4)c3N2)cc1 (relative stereo) [Example 68, Cis-7-(1,1-difluoroethyl)-5-(4-ethylphenyl)-N-(4-methylbenzyl)-4,5,6,7-tetrahydropyrazolo[1,5-a]pyrimidine-3-carboxamide]",≤ 1 µM
